Series [1] relates to esterase. Briefly: Esterase mediated conversion of treprostinil compounds to treprostinil. Conditions: esterase at 37° C., up to 1 hr. In kind it is in vitro ADME. Here is the method:
A set of studies was conducted to determine the conversion kinetics to treprostinil of linear treprostinil compounds versus various branched treprostinil compounds. 0.4 mM of linear C8-TR or branched treprostinil compounds 2-dimethyl-1-propanyl-TR, 3,3-dimethyl-1-butanyl-TR, 2-ethyl-1-butanyl-TR, 5-nonanyl-TR, or 3-pentanyl-TR (see below for structures) were incubated with 0.2 U esterase at 37° C. for 1 hour, and the conversion (% of total) was calculated at 0.25, 0.5, 0.75, or 1 hour incubation time. • C8-TR (i.e., the compound of Formula (A) wherein R2=
The conversion is relative to the C8-TR compound and conversion was measured at 1 hr. post esterase incubation. • C8-TR (i.e., the compound of Formula (A) wherein R2=
Conversion was measured at 1 hr. post esterase incubation. • 4C7-TR (i.e., the compound of Formula (A) wherein R2=

Series [2] has as its target T1, EP2 prostanoid receptor (Homo sapiens, UniProt P43116).
T1 construct: host or cells: CHO-K1
Briefly: GloSensor cAMP assay in CHO-K1 cells co-transfected with the EP2 receptor. It is filed as cell-based. From the text: cAMP is a second messenger involved in signal transduction of G-protein coupled receptors (GPCRs) acting through Gα-s and Gα-i proteins. Because the treprostinil receptor is a GPCR, the assay provides an indication of whether the respective prostacyclin compound (or metabolite thereof) binds its receptor and activates the GPCR cell signaling cascade. The GloSensorTM assay harnesses a genetically modified form of firefly luciferase into which a cAMP-binding protein moiety has been inserted. Upon binding of cAMP, a conformational change is induced leading to increased light output. The EP2 prostanoid receptor was cotransfected with the GioSensorm plasmid (Promega) into CHO-K cells as follows. CHO-K cells were harvested when the monoloayer was at 50-90% confluence. First, cells were washed with 5 mL PBS. […] The media was aspirated, and the cell pellet was resuspended in 10 mL of growth media. Cell number was determined using a hemacytometer. […] For small scale transfections of up to 20 wells, the pGLoSensor-22F cAMP plasmid (Promega, Cat #: E2301) (2 apg): […] Cat #: […] P2271) ratio was diluted to a final concentration of 12.6 ng/μL (total plasmid) in Opti-MEM I reduced-serum medium (Life Technologies, Cat #: 1985062). Next, 6 μL of FuGENE HD transfection reagent (Promega, Cat #: E2311) was added to 160 μL of diluted plasmid and mixed carefully by gentle pipetting. The complex was incubated at room temperature for 0 to 10 minutes, and then 8 μL of the complex was added per well of a 96 well white assay plate (Costar, Cat #: 3917) and gently mixed without disturbing the cell monolayer. […] Following incubation, cells were treated and analyzed. For larger scale transfections, the aforementioned steps were scaled up accordingly, and cells were frozen following the last incubation. In order to prepare frozen transfected CHO-K cells, the media was aspirated from culture flasks and cells were rinsed with 5 mL PBS. […] Cell number was determined using a hemacytometer. The media was aspirated, and the cell pellet was resuspended in freezing media (Millipore, cat #: S-002-SF) at 2.5×10^4 cells/vial. Transfected cells were incubated overnight at -80° C. before transfer to liquid nitrogen for long term storage. […] SH30071.03)). […] In preparation for cAMP measurement, the cells were equilibrated with the GloSensor cAMP reagent prior to treatment. For equilibration, the medium was carefully removed from the individual well. Next, 100 μL of equilibration medium ([…] of Glosensor Reagent stock solution (Promega, Cat #: E291), 10% FBS (Hydone, Cat #: SH30071.03) and 88% CO2 independent medium (Life Technologies, Cat #: 18045088)) was added per well of the 96-well plate, and added to the side of each well. The plate was then incubated for 2 hours at room temperature. A first pre-read measurement was taken using a microplate reader (MicroLumat Plus). Plates were incubated for an additional 10 minutes at room temperature, followed by a second pre-read measurement. […] Following treatment, each plate was read every 5 minutes for the duration of the assay using a microplate reader (MicroLumat Plus). In order to determine the fold change in cAMP relative to the control, the transfection efficiency was first determined by dividing the second pre-read measurement by the average of the corresponding pre-read measurements. Next, the normalized relative light units (RLUs) of the samples were determined by dividing the plate read measurement by the transfection efficiency. The fold change in cAMP relative to the control was then determined by dividing the normalized RLU of the samples by the normalized RLU of the control. The cAMP assay was validated using free treprostinil. […] Luminescence was then measured at room temperature. […] Nebulizer Aeroneb Pro (Aerogen) was used to nebulize treprostinil derivative compositions. Desired volume of the formulation (usually 3 mL) was loaded to the mesh head of the nebulizer. […]
In general terms: Cyclic AMP is a second messenger, typically raised through Gs and lowered through Gi signalling.

A short description of series [3]: physchem. The conditions noted are these: organic solvent or mixture, thermodynamic from solid. Here is the method:
Selected treprostinil derivatives were evaluated for the use in a metered dose inhaler (MDI).
5 mg of each treprostinil compound was added in a glass bottle. Specific amount of ethanol was added by weight. An MDI valve was crimped to each bottle, and HFA propellant added through the valve to the total volume of 5 mL. Compounds were allowed to dissolve for 24 hours at room temperature. The formulations were assessed visually for solubility. The goal was to estimate the minimum ethanol concentration required to solubilize each compound in propellant.
Soluble samples presented as clear and colorless solutions. […] Non-soluble samples had white precipitate or crystals formed. Ethanol was added as a solubility aid.

Series [4] concerns NR8383 cells. Briefly: NR8383 cell proliferation assay. It is filed as cell-based, rat. Conditions: Table 9, unformulated alkyl esters, (0.195 μM-25 μM), 72 hour incubation. The procedure:
Rat alveolar NR8383 cells were harvested when the monolayer was 50-90% confluent (use passage 5-11). Because the NR8383 cells include both adherent and non-adherent cells, media was transferred to a 50 mL Falcon tube. To obtain the cells remaining in the flask, 2 mL of plain media was added, and the remaining cells were scraped out of the 75 cm^2 flask with a cell scraper and added to the 50 mL tube. […] SH30071.03)+1×Pen-Strep (Life Technologies, cat #: 15410-122)). Cell number was determined using a hemacytometer. […] Measurements and calculations were made as described above for the CHO-K1 cells. Rat alveolar NR8383 cells were challenged with the same treprostinil derivative compositions: […]

In series [5] the test system is CHO-K1 cells. Briefly: CHO-K1 cell proliferation assay (Presto Blue). Conditions: Table 9, unformulated alkyl esters, (0.195 μM-25 μM), 48 hour incubation. Here is the method: CHO-K1 cells were harvested when the cell monolayer was 50-90% confluent (use passage 4-11). Media was aspirated out of the flask, and cells were rinsed with 2 mL of F12 media. Next, 1 mL of pre-warmed (37° C.) 0.25% trypsin-EDTA (Life Technologies, Cat#: 25300054) was added, and cells were dislodged from the flask by tapping it on the side. Complete growth media (F12 (Life Technologies, Cat #: 31765092)+10% FBS (Hyclone, Cat #: SH30071.03)+1× Pen-Strep (Life Technologies, cat #15140-122) was then added at a volume of 10 mL. Cells were centrifuged at 250×g for 5 minutes at room temperature, and the media was aspirated. The cell pellet was resuspended in 10 mL complete growth media. Cell number was determined using a hemacytometer. Cells were then seeded at 2000 cells per well of a 96-well plate in 100 μL of complete growth media. The plate was incubated overnight at 37° C. and 5% CO2 in a water-jacketed incubator.
The next day, 80 μL of fresh complete media was added to each well, and CHO-K1 cells were challenged with treprostinil compound and composition treatments. The working solutions were prepared at 10× concentration, and following 2 fold serial dilutions, 20 μL aliquots were added per well to arrive at a final 1× concentration. Following a 48 hour incubation at 37° C. and 5% CO2 in a water-jacketed incubator, the inhibitory effect on cell proliferation was determined. Plates were analyzed using 20 μL of Presto Blue reagent (Life Technologies, cat #: A13262) per well. The reagent was mixed, and plates were incubated for 1 hour at 37° C. and 5% CO2 in a waterjacketed incubator. Plates were read using either a CytoFluor Series 4000 (PerSeptive BioSystems) or Synergy Neo microplate reader (BioTek) with emission λ: 590 nm and excitation λ: 560 nm. […]
CHO-K1 cells were challenged with treprostinil alkyl esters, i.e., TR compounds of Formula (A), having the following R2 groups: […]
C2, C3, C4, C5, C6, C8, C10 or C12 straight chain alkyl, at dosages ranging from 0.098 μM to 25 μM. Following a 48 hour incubation period, the inhibitory effect on cell proliferation was determined.
Following a 72 hour incubation period, the inhibitory effect on cell proliferation was determined. Following a 48 hour incubation period, the inhibitory effect on cell proliferation was determined. […]

By solubility is commonly meant the dissolved amount per volume that the medium holds. One may read the EC50 as the concentration that produces a half-maximal response.

“Also recorded” adds a separate entry of the source. Read-outs that look alike come from different tables or passages of the source.

T1 sequence (P43116 whole entry): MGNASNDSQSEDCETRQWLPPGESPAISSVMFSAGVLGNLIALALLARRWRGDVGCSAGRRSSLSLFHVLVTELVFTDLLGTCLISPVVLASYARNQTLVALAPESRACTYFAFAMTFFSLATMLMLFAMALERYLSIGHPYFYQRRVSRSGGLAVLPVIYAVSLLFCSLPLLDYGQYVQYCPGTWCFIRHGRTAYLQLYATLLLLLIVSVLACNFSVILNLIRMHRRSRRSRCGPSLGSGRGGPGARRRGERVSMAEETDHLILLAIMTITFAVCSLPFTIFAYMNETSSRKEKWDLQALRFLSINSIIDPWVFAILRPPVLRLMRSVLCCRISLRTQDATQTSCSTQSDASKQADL

As for `CCCCCC[C@@H](C)OC(=O)COc1cccc2c1C[C@H]1C[C@@H](O)[C@H](CC[C@@H](O)CCCCC)[C@H]1C2` [(R)-2C8-TR], the “conversion rate compared with other compound” value in series [1] was “no significant difference”.

As for `CCCCC[C@H](O)CC[C@@H]1[C@H]2Cc3cccc(OCC(=O)OC(CCC)CCCC)c3C[C@H]2C[C@H]1O` (stereo partly shown) [Compound 4C8-TR], in series [1], the “conversion rate compared with other compound” value was “slower conversion rate than the linear compound C-TR; also recorded: slower conversion rate than the symmetrical compounds (4C7-TR and 5C9-TR)”.

With `CCCCC[C@H](O)CC[C@@H]1[C@H]2Cc3cccc(OCC(=O)OC(CCCC)CCCC)c3C[C@H]2C[C@H]1O` [Compound 5C9-TR, 5-nonanyl-treprostinil], the “change of potency with incubation time” value in series [2] (cAMP dose response curves, 0.5 hr to 8 hr) is listed as “increases with incubation time”. Besides, the ranking of activity entry in series [2] (kinetic profile at 10 μM and 5 μM) is on record as “C12-TR>C14-TR>5-nonanyl-TR>C16-TR”. Further, the values for the solubility at 24 h in series [3] (Solubility in HFA-134a with added ethanol) and in series [3] (Solubility in HFA-227 with added ethanol) were under 1000 µg/mL and over 1000 µg/mL, respectively. Moreover, the “conversion rate compared with other compound” value is given as “slower conversion rate than the linear compound C-TR” in series [1] and “slower conversion rate than linear C8-TR” in series [1] (listed as 5-nonanyl-TR).

Turning to `CCCCCC[C@H](C)OC(=O)COc1cccc2c1C[C@H]1C[C@@H](O)[C@H](CC[C@@H](O)CCCCC)[C@H]1C2` [(S)-2C8-TR], the “conversion rate compared with other compound” value in series [1] was “no significant difference”.

Consider `CCCCC[C@H](O)CC[C@@H]1[C@H]2Cc3cccc(OCC(=O)OCC)c3C[C@H]2C[C@H]1O` [Compound C2-TR, treprostinil ethyl ester], for which the EC50 in series [2] (4.5 hr incubation time, read-out: EC50 (μM) 4.5 hr) came out at 1.84 µM; in series [2] (6.0 hr incubation time, read-out: EC50 (μM) 6.0 hr), 1.68 µM; in series [2] (8.0 hr incubation time, read-out: EC50 (μM) 8.0 hr) it was 1.65 µM; in series [2] (EC50 (μM) 0.5 hr, 0.5 hr incubation time), 2.43 µM; in series [2] (EC50 (μM) 1.0 hr, 1.0 hr incubation time) it was 2.27 µM; in series [2] (EC50 (μM) 2.0 hr, 2.0 hr incubation time), 1.75 µM. The concentration giving a half-maximal response (EC50) in series [2] (EC50 (μM) 3.0 hr, 3.0 hr incubation time) was 1.81 µM; in series [2] (EC50 (μM) 4.0 hr, 4.0 hr incubation time) it was 1.88 µM; in series [2] (EC50 (μM) 5.0 hr, 5.0 hr incubation time), 1.91 µM; in series [2] (EC50 (μM) 7.0 hr, 7.0 hr incubation time), 1.71 µM. In addition, the “Effect on cell proliferation, NR8383 Cells: detectable cell inhibition” value in series [4] is reported as “No detectable cell inhibition”. Further, the “Effect on cell proliferation, CHO-K1 Cells: detectable cell inhibition” value in series [5] is on record as “No detectable cell inhibition”.

Consider `CCCCCCOC(=O)COc1cccc2c1C[C@H]1C[C@@H](O)[C@H](CC[C@@H](O)CCCCC)[C@H]1C2` [Compound C6-TR], for which, in series [4], the “Effect on cell proliferation, NR8383 Cells: detectable cell inhibition” value is given as “No detectable cell inhibition”. Also, in series [5], the “Effect on cell proliferation, CHO-K1 Cells: detectable cell inhibition” value was “No detectable cell inhibition”.

As for `CCCCC[C@H](O)CC[C@@H]1[C@H]2Cc3cccc(OCC(=O)OCCC)c3C[C@H]2C[C@H]1O` [Compound C3-TR], the “Effect on cell proliferation, NR8383 Cells: detectable cell inhibition” value in series [4] is on record as “No detectable cell inhibition”. For the same compound, the “Effect on cell proliferation, CHO-K1 Cells: detectable cell inhibition” value in series [5] is listed as “No detectable cell inhibition”.

On to `CCCCC[C@H](O)CC[C@@H]1[C@H]2Cc3cccc(OCC(=O)OC(CCC)CCC)c3C[C@H]2C[C@H]1O` [Compound 4C7-TR], for which, in series [1], the “conversion rate compared with other compound” value is reported as “slower conversion rate than the linear compound C-TR”.

Consider `CCCCC[C@H](O)CC[C@@H]1[C@H]2Cc3cccc(OCC(=O)OCCCC)c3C[C@H]2C[C@H]1O` [Compound C4-TR], for which the “Effect on cell proliferation, NR8383 Cells: detectable cell inhibition” value in series [4] was “No detectable cell inhibition”. Further, the “Effect on cell proliferation, CHO-K1 Cells: detectable cell inhibition” value in series [5] is “No detectable cell inhibition”.

The values above are taken from US20160318844A1, “PROSTACYCLIN COMPOUNDS, COMPOSITIONS AND METHODS OF USE THEREOF” (Insmed Incorporated, priority 2015, published 2016).
